≈ marks a conversion by molar mass, not a printed value. Read-outs that look alike come from different tables or passages of the source. Where a SMILES comes first, the peptide text is derived from it. Bridges are numbered along the chain shown (N, C = ends). [ ]: non-standard residue; d: D form. The star is where a group is joined. Indazole3carbonyl = O=C(c1n[nH]c2ccccc12)*; X37 = O=C(c1ccc(-c2ccc(Cl)cc2)s1)*; X49 = O=C(c1cnc(C(F)(F)F)nc1)*; X20 = O=C(c1ccc(C(F)(F)F)s1)*; X4 = O=C(c1cncc(C(F)(F)F)c1)*; X69 = Cn1c(C(=O)*)nc2ccccc21; X25 = O=C(c1ccnc(Cl)c1)*; Dab = NCC[C@H](N)C(=O)O; X3 = O=C(c1cncc(Cl)c1)*; Abu = CC[C@H](N)C(=O)O; Dap = NC[C@H](N)C(=O)O
How the values were obtained:
Assay type in all cases: cell-based
[1] = tested on: Acinetobacter baumannii ATCC 17978
How it was run: (§1)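 Following CLSI procedure M100-S24, minimum inhibitory concentrations of trifluoroacetate lipopeptides are measured in cation-adjusted Mueller-Hinton medium by broth microdilution, alongside a polymyxin B sulphate control.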

[2] = tested on: Acinetobacter baumannii FADDI-AB034
How it was run: as §1

[3] = tested on: Enterobacter cloacae FADDI-EC001
How it was run: (§2)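 Broth microdilution MIC per CLSI in cation-adjusted Mueller-Hinton broth, lipopeptides tested as TFA salts. Polymyxin B sulphate served as control.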

[4] = tested on: Enterobacter cloacae FADDI-EC003
How it was run: as §1

[5] = tested on: Enterobacter cloacae FADDI-EC006
How it was run: as §1

[6] = tested on: Klebsiella pneumoniae FADDI-KP022
How it was run: as §1

[7] = tested on: Klebsiella pneumoniae FADDI-KP032
How it was run: as §1

[8] = tested on: Klebsiella pneumoniae Kp BM1
How it was run: as §2

[9] = tested on: Pseudomonas aeruginosa ATCC 27853
How it was run: as §1

[10] = tested on: Pseudomonas aeruginosa FADDI-PA01
How it was run: as §1

[11] = tested on: Pseudomonas aeruginosa FADDI-PA022
How it was run: as §1

[12] = tested on: Pseudomonas aeruginosa FADDI-PA038
How it was run: as §1

[13] = tested on: Acinetobacter baumannii FADDI-AB030; assay: microbe, parasite or virus in culture
How it was run: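 Lipopeptide TFA salts tested against the multidrug-resistant clinical isolate by CLSI (M100-S24) broth microdilution in cation-adjusted Mueller-Hinton broth, with polymyxin B sulphate as control; MIC read.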

Row | Compound | Minimum inhibitory concentration ([1]; ATCC 17978) [mg/L] | Minimum inhibitory concentration ([2]; FADDI-AB034) [mg/L] | Minimum inhibitory concentration ([3]; FADDI-EC001) [mg/L] | Minimum inhibitory concentration ([4]; FADDI-EC003) [mg/L] | Minimum inhibitory concentration ([5]; FADDI-EC006) [mg/L] | Minimum inhibitory concentration ([6]; FADDI-KP022) [mg/L] | Minimum inhibitory concentration ([7]; FADDI-KP032) [mg/L] | Minimum inhibitory concentration ([8]; Kp BM1) [mg/L] | Minimum inhibitory concentration ([9]; ATCC 27853) [mg/L] | Minimum inhibitory concentration ([10]; FADDI-) [mg/L] | Minimum inhibitory concentration ([11]; FADDI-PA022) [mg/L] | Minimum inhibitory concentration ([12]; FADDI-PA038) [mg/L] | Minimum inhibitory concentration ([13]; FADDI-AB030) [mg/L] | other results
1 | CC[C@@H]1NC(=O)[C@@H](CC(C)C)NC(=O)[C@H](CCN)NC(=O)[C@@H](NC(=O)[C@H](CN)NC(=O)[C@@H](NC(=O)[C@H](CCN)NC(=O)c2n[nH]c3ccccc23)[C@@H](C)O)CCNC(=O)[C@H]([C@@H](C)O)NC(=O)[C@H](CCN)NC(=O)[C@H](CCN)NC1=O [Compound 54] (Indazole3carbonyl-[Dab]T[Dap][Dab][Dab][dL][Abu][Dab][Dab]T; lactam 4-C) | – | – | – | – | – | – | – | – | – | – | – | – | – | Minimum inhibitory concentration ([1]; A. baumannii ATCC 17978, CAMHB broth microdilution): 1 mg/L (≈ 0.884 µM); Minimum inhibitory concentration ([2]; A. baumannii FADDI-AB034, CAMHB broth microdilution): 0.5 mg/L (≈ 0.442 µM); Minimum inhibitory concentration ([3]; E. cloacae FADDI-EC001, CAMHB broth microdilution): <0.125 mg/L; Minimum inhibitory concentration ([4]; E. cloacae FADDI-EC003, CAMHB broth microdilution): 0.5 mg/L (≈ 0.442 µM); Minimum inhibitory concentration ([5]; E. cloacae FADDI-EC006, CAMHB broth microdilution): 0.5 mg/L (≈ 0.442 µM); Minimum inhibitory concentration ([6]; K. pneumoniae FADDI-KP022, CAMHB broth microdilution): <0.125 mg/L; Minimum inhibitory concentration ([7]; K. pneumoniae FADDI-KP032, CAMHB broth microdilution): <0.125 mg/L; Minimum inhibitory concentration ([8]; K. pneumoniae Kp BM1, CAMHB broth microdilution): <0.125 mg/L; Minimum inhibitory concentration ([9]; P. aeruginosa ATCC 27853, CAMHB broth microdilution): 0.5 mg/L (≈ 0.442 µM); Minimum inhibitory concentration ([10]; P. aeruginosa FADDI-PA01, CAMHB broth microdilution): 0.25 mg/L (≈ 0.221 µM); Minimum inhibitory concentration ([11]; P. aeruginosa FADDI-PA022, CAMHB broth microdilution): 0.5 mg/L (≈ 0.442 µM); Minimum inhibitory concentration ([12]; P. aeruginosa FADDI-PA038, CAMHB broth microdilution): 0.25 mg/L (≈ 0.221 µM); Minimum inhibitory concentration ([13]; A. baumannii FADDI-AB030, CAMHB broth microdilution): 0.25 mg/L (≈ 0.221 µM)
2 | CC[C@@H]1NC(=O)[C@@H](CC(C)C)NC(=O)[C@H](CCN)NC(=O)[C@@H](NC(=O)[C@H](CN)NC(=O)[C@@H](NC(=O)[C@H](CCN)NC(=O)c2ccnc(Cl)c2)[C@@H](C)O)CCNC(=O)[C@H]([C@@H](C)O)NC(=O)[C@H](CCN)NC(=O)[C@H](CCN)NC1=O [Compound 24] (X25-[Dab]T[Dap][Dab][Dab][dL][Abu][Dab][Dab]T; lactam 4-C) | 2 (≈ 1.78 µM) | 1 (≈ 0.888 µM) | 0.25 (≈ 0.222 µM) | 0.25 (≈ 0.222 µM) | 4 (≈ 3.55 µM) | <0.125 | 0.5 (≈ 0.444 µM) | 0.25 (≈ 0.222 µM) | 0.25 (≈ 0.222 µM) | 0.25 (≈ 0.222 µM) | 0.25 (≈ 0.222 µM) | 1 (≈ 0.888 µM) | 1 (≈ 0.888 µM) | –
3 | CC(C)C[C@H]1NC(=O)[C@H](CCN)NC(=O)[C@@H](NC(=O)[C@H](CN)NC(=O)[C@@H](NC(=O)[C@H](CCN)NC(=O)c2ccc(-c3ccc(Cl)cc3)s2)[C@@H](C)O)CCNC(=O)[C@H]([C@@H](C)O)NC(=O)[C@H](CCN)NC(=O)[C@H](CCN)NC(=O)[C@H]([C@@H](C)O)NC1=O [Compound 17] (X37-[Dab]T[Dap][Dab][Dab][dL]T[Dab][Dab]T; lactam 4-C) | 2 (≈ 1.63 µM) | 1 (≈ 0.817 µM) | 0.25 (≈ 0.204 µM) | 1 (≈ 0.817 µM) | 0.5 (≈ 0.409 µM) | <0.125 | 0.5 (≈ 0.409 µM) | 0.5 (≈ 0.409 µM) | 1 (≈ 0.817 µM) | 0.5 (≈ 0.409 µM) | 1 (≈ 0.817 µM) | 1 (≈ 0.817 µM) | 0.25 (≈ 0.204 µM) | –
4 | CC[C@@H]1NC(=O)[C@@H](CC(C)C)NC(=O)[C@H](CCN)NC(=O)[C@@H](NC(=O)[C@H](CN)NC(=O)[C@@H](NC(=O)[C@H](CCN)NC(=O)c2nc3ccccc3n2C)[C@@H](C)O)CCNC(=O)[C@H]([C@@H](C)O)NC(=O)[C@H](CCN)NC(=O)[C@H](CCN)NC1=O [Compound 57] (X69-[Dab]T[Dap][Dab][Dab][dL][Abu][Dab][Dab]T; lactam 4-C) | 0.5 (≈ 0.437 µM) | 0.5 (≈ 0.437 µM) | <0.125 | 0.25 (≈ 0.218 µM) | 1 (≈ 0.873 µM) | <0.125 | <0.125 | 0.25 (≈ 0.218 µM) | 0.5 (≈ 0.437 µM) | 0.25 (≈ 0.218 µM) | 0.5 (≈ 0.437 µM) | 0.5 (≈ 0.437 µM) | 0.25 (≈ 0.218 µM) | –
5 | CC[C@@H]1NC(=O)[C@@H](CC(C)C)NC(=O)[C@H](CCN)NC(=O)[C@@H](NC(=O)[C@H](CN)NC(=O)[C@@H](NC(=O)[C@H](CCN)NC(=O)c2cnc(C(F)(F)F)nc2)[C@@H](C)O)CCNC(=O)[C@H]([C@@H](C)O)NC(=O)[C@H](CCN)NC(=O)[C@H](CCN)NC1=O [Compound 45] (X49-[Dab]T[Dap][Dab][Dab][dL][Abu][Dab][Dab]T; lactam 4-C) | 2 (≈ 1.72 µM) | 0.5 (≈ 0.431 µM) | <0.125 | 2 (≈ 1.72 µM) | 2 (≈ 1.72 µM) | <0.125 | 0.5 (≈ 0.431 µM) | 0.5 (≈ 0.431 µM) | 0.25 (≈ 0.215 µM) | <0.125 | 0.25 (≈ 0.215 µM) | 1 (≈ 0.861 µM) | 0.5 (≈ 0.431 µM) | –
6 | CC[C@@H]1NC(=O)[C@@H](CC(C)C)NC(=O)[C@H](CCN)NC(=O)[C@@H](NC(=O)[C@H](CN)NC(=O)[C@@H](NC(=O)[C@H](CCN)NC(=O)c2cncc(C(F)(F)F)c2)[C@@H](C)O)CCNC(=O)[C@H]([C@@H](C)O)NC(=O)[C@H](CCN)NC(=O)[C@H](CCN)NC1=O [Compound 20] (X4-[Dab]T[Dap][Dab][Dab][dL][Abu][Dab][Dab]T; lactam 4-C) | 2 (≈ 1.72 µM) | 0.5 (≈ 0.431 µM) | 0.5 (≈ 0.431 µM) | 4 (≈ 3.45 µM) | 0.5 (≈ 0.431 µM) | <0.125 | 0.5 (≈ 0.431 µM) | 0.25 (≈ 0.215 µM) | 0.5 (≈ 0.431 µM) | 0.5 (≈ 0.431 µM) | 0.5 (≈ 0.431 µM) | 0.5 (≈ 0.431 µM) | 0.5 (≈ 0.431 µM) | –
7 | CC[C@@H]1NC(=O)[C@@H](CC(C)C)NC(=O)[C@H](CCN)NC(=O)[C@@H](NC(=O)[C@H](CN)NC(=O)[C@@H](NC(=O)[C@H](CCN)NC(=O)c2cncc(Cl)c2)[C@@H](C)O)CCNC(=O)[C@H]([C@@H](C)O)NC(=O)[C@H](CCN)NC(=O)[C@H](CCN)NC1=O [Compound 6] (X3-[Dab]T[Dap][Dab][Dab][dL][Abu][Dab][Dab]T; lactam 4-C) | 2 (≈ 1.78 µM) | 2 (≈ 1.78 µM) | 0.25 (≈ 0.222 µM) | <0.125 | 0.25 (≈ 0.222 µM) | <0.125 | 0.25 (≈ 0.222 µM) | 0.5 (≈ 0.444 µM) | 1 (≈ 0.888 µM) | 0.5 (≈ 0.444 µM) | 1 (≈ 0.888 µM) | 0.5 (≈ 0.444 µM) | 1 (≈ 0.888 µM) | –
8 | CC[C@@H]1NC(=O)[C@@H](CC(C)C)NC(=O)[C@H](CCN)NC(=O)[C@@H](NC(=O)[C@H](CN)NC(=O)[C@@H](NC(=O)[C@H](CCN)NC(=O)c2ccc(C(F)(F)F)s2)[C@@H](C)O)CCNC(=O)[C@H]([C@@H](C)O)NC(=O)[C@H](CCN)NC(=O)[C@H](CCN)NC1=O [Compound 86] (X20-[Dab]T[Dap][Dab][Dab][dL][Abu][Dab][Dab]T; lactam 4-C) | <0.125 | <0.125 | <0.125 | 0.25 (≈ 0.215 µM) | 0.25 (≈ 0.215 µM) | <0.125 | <0.125 | 0.25 (≈ 0.215 µM) | 0.5 (≈ 0.429 µM) | 0.5 (≈ 0.429 µM) | 0.5 (≈ 0.429 µM) | 1 (≈ 0.858 µM) | 0.25 (≈ 0.215 µM) | –

From patent publication US11225505B2, “Antimicrobial polymyxin derivative compounds” (MONASH UNIVERSITY, priority 2015, dated 2022)
